Assay results taken from patent US8106055B2, “Substituted amide compounds” (Gruenenthal GmbH, priority 2007, dated 2012).
Read-outs that look alike come from different tables or passages of the source.

Tests used:
[1] = molecular target: T1, human bradykinin 1 receptor (B1R) (Homo sapiens, UniProt P46663); assay: Functional investigation on the human bradykinin 1 receptor (B1R), Ca2+ FLIPR assay in CHO K1 hB1R cells; format: cell-based; details: for B1R Ant. h [10 μM] % Inhibition: B1R antagonism human
T1 construct: expressed in transfected cells; host or cells: CHO K1 cells
T1 sequence (P46663 1-353): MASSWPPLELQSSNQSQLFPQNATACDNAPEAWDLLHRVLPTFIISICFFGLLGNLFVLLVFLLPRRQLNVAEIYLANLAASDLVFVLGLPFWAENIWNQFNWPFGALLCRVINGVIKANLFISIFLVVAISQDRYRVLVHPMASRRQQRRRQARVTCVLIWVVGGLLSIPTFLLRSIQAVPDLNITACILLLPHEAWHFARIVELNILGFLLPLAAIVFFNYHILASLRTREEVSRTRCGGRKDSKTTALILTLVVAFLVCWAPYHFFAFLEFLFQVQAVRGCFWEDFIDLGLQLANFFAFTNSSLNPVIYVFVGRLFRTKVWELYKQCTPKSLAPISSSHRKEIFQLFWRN
Outline: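 Peak Ca2+-dependent fluorescence in B1R-transfected CHO K1 cells measures antagonism of an EC80 agonist challenge given 10-20 min after compound. Agonist is Lys-Des-Arg9-bradykinin for human, Des-Arg9-bradykinin for rat receptor.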

[2] = molecular target: T2, serotonin (5-HT) reuptake (Rattus norvegicus, UniProt P31652); assay: Inhibition of serotonin (5HT) reuptake in synaptosomes from rat brain; format: biochemical
T2 construct: synaptosomes are freshly isolated from areas of the rat brain; from tissue; host or cells: rat brain synaptosomes (P2 fraction)
T2 sequence (P31652 whole entry): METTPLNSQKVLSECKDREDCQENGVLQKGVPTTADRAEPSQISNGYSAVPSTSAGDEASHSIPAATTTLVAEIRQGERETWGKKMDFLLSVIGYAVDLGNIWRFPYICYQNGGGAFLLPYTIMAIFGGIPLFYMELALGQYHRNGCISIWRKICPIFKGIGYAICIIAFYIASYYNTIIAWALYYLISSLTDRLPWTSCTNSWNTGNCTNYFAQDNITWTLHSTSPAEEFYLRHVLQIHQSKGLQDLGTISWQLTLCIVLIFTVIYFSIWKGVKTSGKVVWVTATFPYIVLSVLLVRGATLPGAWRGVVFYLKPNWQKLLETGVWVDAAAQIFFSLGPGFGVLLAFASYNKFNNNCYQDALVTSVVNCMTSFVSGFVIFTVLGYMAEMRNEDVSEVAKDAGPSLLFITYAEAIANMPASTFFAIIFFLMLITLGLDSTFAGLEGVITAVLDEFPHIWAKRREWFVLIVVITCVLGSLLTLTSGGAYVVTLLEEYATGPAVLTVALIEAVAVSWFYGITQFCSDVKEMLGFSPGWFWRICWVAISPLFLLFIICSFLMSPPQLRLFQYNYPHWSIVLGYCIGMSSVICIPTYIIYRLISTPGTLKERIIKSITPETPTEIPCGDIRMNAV
Description: Binding data of the compounds on the μ opioid receptor and data on the inhibition of reuptake of serotonin (5-HT) are given in Table 1. The data for the μ receptor were measured at a test concentration of 1 μM, and those for the serotonin reuptake at 10 μM. The values are stated in % inhibition.
Inhibition of Serotonin (5HT) Reuptake
In order to be able to carry out these in vitro studies, synaptosomes are freshly isolated from areas of the rat brain. In each case a so-called “P2” fraction prepared in accordance with the instructions of Gray and Whittaker (E. G. Gray and V. P. Whittaker (1962) J. Anat. 76, 79-88) is prepared. For the NA uptake, these vesicular particles are isolated from the hypothalamus of male rat brains.
A detailed description of the method can be found in the literature (M. Ch. Frink, H.-H. Hennies, W. Englberger, M. Haurand and B. Wilffert (1996) Arzneim.-Forsch./Drug Res. 46 (III), 11, 1029-1036).

human μ opiate receptor = molecular target: T3, human μ opiate receptor (Homo sapiens, UniProt P35372); assay: Affinity for the human μ opiate receptor ([3H]-naloxone displacement, CHO-K1 receptor membrane preparation, SPA); format: binding
T3 construct: purchased PerkinElmer Life Sciences, Zaventem, Belgium RB-HOM; host or cells: CHO-K1 cells (membrane preparation)
T3 sequence (P35372 whole entry): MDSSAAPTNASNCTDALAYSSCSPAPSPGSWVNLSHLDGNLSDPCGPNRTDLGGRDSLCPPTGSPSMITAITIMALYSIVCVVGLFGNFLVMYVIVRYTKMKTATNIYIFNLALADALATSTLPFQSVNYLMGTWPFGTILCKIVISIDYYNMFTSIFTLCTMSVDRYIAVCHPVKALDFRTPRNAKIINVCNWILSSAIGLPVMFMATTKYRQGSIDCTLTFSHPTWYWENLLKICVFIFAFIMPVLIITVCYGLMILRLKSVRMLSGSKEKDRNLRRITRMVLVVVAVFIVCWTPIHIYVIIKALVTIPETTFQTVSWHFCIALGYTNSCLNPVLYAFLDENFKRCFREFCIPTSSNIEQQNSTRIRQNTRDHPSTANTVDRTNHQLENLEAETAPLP
Outline: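 SPA, CHO-K1 hμ membranes; 1 nmol/l [3H]-naloxone; Tris-HCl 50 mmol/l + 0.06% BSA; 90 min RT; NSB with 100 μmol/l naloxone; β-counting. Readout: % inhibition of specific binding at 1 μM test compound.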

[3] = CHO-K1, B1R antagonism human, test substance 10 μM, Ca2+ FLIPR, CHO K1 hB1R cells, read-out: B1R Ant. h [10 μM] % Inhibition
[4] = test concentration of 10 μM, read-out: 5-HT (inhibition of reuptake of serotonin, % inhibition)
[5] = test concentration of 1 μM, read-out: μ (binding on the μ opioid receptor, % inhibition)
[6] = test substance 10 μM, Ca2+ FLIPR, CHO K1 hB1R cells
[7] = Table 2, test concentration 10 μM, read-out: 5-HT reuptake
[8] = 1.5 h, Table 2, test concentration 1 μM, read-out: μ receptor

SMILES	inhibition at 10 µM [1, 3] [%]	inhibition at 10 µM [2, 4] [%]	inhibition at 1 µM (human μ opiate receptor; [5]) [%]	inhibition at 10 µM [2, 7] [%]	inhibition at 1 µM (human μ opiate receptor; [8]) [%]	other results
CN(C)C(c1ccccc1)C1CCC(NC(=O)COCC2CCCCN2S(=O)(=O)c2cccc(Cl)c2Cl)CC1 (stereo not drawn) [Example 24, 2-((1-(2,3-dichlorophenylsulfonyl)piperidin-2-yl)methoxy)-N-(4-((dimethylamino)(phenyl)methyl)cyclohexyl)acetamide]	99	67	97	–	–	–
CN(C)C(c1ccccc1)C1CCC(NC(=O)COc2ccccc2N(C)S(=O)(=O)c2ccc(Cl)c(Cl)c2)CC1 (stereo not drawn) [Example 166, 2-(2-(3,4-dichloro-N-methylphenylsulfonamido)phenoxy)-N-(4-((dimethylamino)(phenyl)methyl)cyclohexyl)acetamide]	74	91	87	–	–	–
COc1cc(C)c(S(=O)(=O)N(CCOCC(=O)NC2CCC(C(c3ccccc3)N(C)C)CC2)Cc2ccccc2)c(C)c1 (stereo not drawn) [Example 483]	–	–	–	–	–	B1R Ant. h [10 μM] % Inhibition [1, 6]: 34%; 5-HT (inhibition of reuptake of serotonin, % inhibition) ([2]; test concentration of 10 μM): 65%; μ (binding on the μ opioid receptor, % inhibition) (human μ opiate receptor; test concentration of 1 μM): 38%
O=C(COCCN(C1CC1)S(=O)(=O)c1c(Cl)cc(Cl)cc1Cl)NC1CCC(C(c2ccccc2)N2CCCCC2)CC1 (stereo not drawn) [Example 602, 2-{2-[cyclopropyl-(2,4,6-trichlorobenzenesulfonyl)-amino]-ethoxy}-N-[4-(phenylpiperidin-1-ylmethyl)-cyclohexyl]-acetamide]	81	–	–	51	55	–
COc1cc(C)c(S(=O)(=O)N(C)CCOCC(=O)NCC2CCC(C(c3cccc(F)c3)N(C)C)CC2)c(C)c1C (stereo not drawn) [Example 160, N-((4-((dimethylamino)(3-fluorophenyl)methyl)cyclohexyl)methyl)-2-(2-(4-methoxy-N,2,3,6-tetramethylphenylsulfonamido)ethoxy)acetamide]	98	80	88	–	–	–
CN(Cc1ccccc1)C(c1ccccc1)C1CCC(NC(=O)COCCN(C)S(=O)(=O)c2c(Cl)cc(Cl)cc2Cl)CC1 (stereo not drawn) [Example 599, N-{4-[(benzylmethylamino)-phenylmethyl]-cyclohexyl}-2-{2-[methyl-(2,4,6-trichlorobenzenesulfonyl)-amino]-ethoxy}-acetamide]	-6	–	–	33	91	–
CN(C)C(c1ccccc1)C1CCC(NC(=O)COCCN(Cc2ccccc2)S(=O)(=O)c2ccccc2)CC1 (stereo not drawn) [Example 51, 2-(2-(N-benzylphenylsulfonamido)ethoxy)-N-(4-((dimethylamino)(phenyl)methyl)cyclohexyl)acetamide]	–	88	95	–	–	inhibition at 10 µM ([1]; CHO-K1, read-out: B1R Ant. h [10 μM] % Inhibition): 9%
CN(CCOCC(=O)NC1CCC(C(c2ccccc2)N2CCCCC2)CC1)S(=O)(=O)c1c(Cl)cc(Cl)cc1Cl (stereo not drawn) [Example 601, 2-{2-[methyl-(2,4,6-trichlorobenzenesulfonyl)-amino]-ethoxy}-N-[4-(phenylpiperidin-1-yl-methyl)-cyclohexyl]-acetamide]	78	–	–	75	45	–
CN(C)C(c1ccccc1)C1CCC(NC(=O)COCCN(C)S(=O)(=O)c2c(Cl)cc(Cl)cc2Cl)CC1 (stereo not drawn) [Example 598, N-[4-(dimethylaminophenylmethyl)-cyclohexyl]-2-{2-[methyl-(2,4,6-trichlorobenzenesulfonyl)-amino]-ethoxy}-acetamide]	–	–	–	75	91	B1R Ant. h [10 μM] % Inhibition [1, 6]: 86%
COc1ccc(S(=O)(=O)N2CCCCC2COCC(=O)NC2CCC(C(c3ccccc3)N(C)C)CC2)c(OC)c1 (stereo not drawn) [Example 187, 2-((1-(2,4-dimethoxyphenylsulfonyl)piperidin-2-yl)methoxy)-N-(4-((dimethylamino)(phenyl)methyl)cyclohexyl)acetamide]	-6	81	79	–	–	–
